In US11873321B2, “Compositions and methods for treating alzheimer's disease” (Generos Biopharma Ltd., priority 2017, dated 2024):

Columns and labels:
[1] = tested on: APP over-expression SH-SY5Y cell line; experiment: Western blot of APP in cell lysate and in exosomes purified from the medium after 25-OHC treatment; type: cell-based, human; settings: different dosage of 25-OHC
Protocol: (§1) FIGS. 8A-8C show graphs and images depicting that treatment with 25-OHC decreased exosomal APP but increases intracellular APP. SH-SY5Y cells with APP over-expression were treated with different dosage of 25-OHC.
(§2) SH-SY5Y cells over-express human APP were cultured in DMEM with 10% FBS. One day before exosome preparation, medium was changed to blank DMEM to avoid the contamination of serum exosomes. 24 hour after medium change, the mediums were collected, and spin at 200 g for 5 min to pellet down floating cells. The cell free medium was further centrifuged at 100,000 g for 1 h at 4° C., and the pellet containing exosomes was dissolved in RIPA buffer
We used APP over-expression SH-SY5Y cell line to further check if the difference in exosomal APP is due to 25-OHC. Cells were treated with different dosage of 25-OHC and both cell lysate and exosomes from medium were collected. […] In contract, as the dosage of 25-OHC increased, more APP was found in the cell lysate fraction.

[2] = tested on: APP over-expression SH-SY5Y cell line; experiment: FACS analysis of surface APP; type: cell-based, human; settings: 25-OHC treated vs control cells
Protocol: as §1
More amounts of APP were detected on the cell surface of cells overexpressing APP after 25-OHC treatment.

[3] = tested on: APP over-expression SH-SY5Y cell line; experiment: ELISA measurement of Aβ42 in exosomes collected from cell culture medium; type: cell-based, human; settings: different concentration of 25-OHC; three independent experiments
Protocol: ELISA measurement of Aβ42 in exosomes collected from cell culture medium with different concentration of 25-OHC treatment. Data are representative of three independent experiments. *p<0.05.
as §2
Quantification of Aβ42 was carried out with ELISA kit (Millipore) according to the manufactures' instructions.
Data are representative of three independent experiments.

APP trafficking in cells = experiment: Trafficking of antibody-labelled surface APP (fixed time points, time-lapse); type: cell-based; settings: 25-OHC treated vs untreated cells; in untreated cells signal disappeared within 6 hours
Protocol: FIGS. 10A-10C show images depicting increased retention time of APP inside cells after treatment with 25-OHC. […] Cells were fixed at different time points to check the distribution of APP at specific time.
We went on to check the trafficking of APP protein. Surface APP were labeled by antibody, and cells were put back to incubator and fixed at different time point for staining.

APP/PS1 mice = settings: 2-month-old, injected every other day for 1 month, vs saline
Protocol: Mice at 2-month-old were injected with 25-OHC or saline as control every other day for duration of 1 month. Brains from these mice were sectioned and stained for amyloid-beta.
All experiments were performed with mice 3-4 months old and approved by the Institutional Animal Care and Use Committee of NUS.
Tissues were fixed in 4% paraformaldehyde, dehydrated, penetrated and paraffin embedded. […] For immunofluorescence (IF) or immunohistochemistry (IHC), sections were rehydrated and stained with primary antibody against Aβ (Cell signaling), followed by incubation with fluorescence-conjugated secondary antibodies (Invitrogen).

SH-SY5Y cells = settings: co-treatment with 25-OHC, cells lysed 24 h later, blotted for APP

| Structure (SMILES) | cellular APP (cell lysate, Western blot) ([1]; APP over-expression SH-SY5Y cells) | exosomal APP (Western blot) ([1]; exosomes from medium) | amount of APP on cell surface (FACS) [2] | Aβ42 in exosomes (ELISA) [3] | trafficking / retention of APP in cells (APP trafficking in cells) | amount of Aβ in brain (plaque staining) (APP/PS1 mice) | effect on 25-OHC induced increase of cellular APP (SH-SY5Y cells) |
| --- | --- | --- | --- | --- | --- | --- | --- |
| C[C@H](CCCC(C)(C)O)[C@H]1CC[C@H]2[C@@H]3CC=C4C[C@@H](O)CC[C@]4(C)[C@H]3CC[C@]12C [25-OHC, 25-hydroxylated cholesterol] | dosage dependent effect to increase cellular APP | decreasing exosomal APP | increased the amount of APP on cell surface | increased Aβ42 in exosomes | the trafficking of APP was slower | significant high amount of Aβ | – |
| CC(C)(C)C(=O)OCC(=O)[C@@]1(O)CC[C@H]2[C@@H]3CCC4=CC(=O)C=C[C@]4(C)[C@H]3[C@@H](O)C[C@@]21C [prednisolone trimethylacetate] | – | – | – | – | – | – | had no effect |
